Experimental findings from BindingDB's records for PubMed 39011823 (University of Lille) are described below.

Where only a bound is given, the exact number is not on record here.

The target in the first experiment is Leucyl-cystinyl aminopeptidase (Homo sapiens) (UniProt Q9UIQ6). The experiment is described as follows: Inhibition of IRAP (unknown origin) using L-AMC as substrate.
Chain of Leucyl-cystinyl aminopeptidase (Homo sapiens) (Q9UIQ6 whole entry, looked up): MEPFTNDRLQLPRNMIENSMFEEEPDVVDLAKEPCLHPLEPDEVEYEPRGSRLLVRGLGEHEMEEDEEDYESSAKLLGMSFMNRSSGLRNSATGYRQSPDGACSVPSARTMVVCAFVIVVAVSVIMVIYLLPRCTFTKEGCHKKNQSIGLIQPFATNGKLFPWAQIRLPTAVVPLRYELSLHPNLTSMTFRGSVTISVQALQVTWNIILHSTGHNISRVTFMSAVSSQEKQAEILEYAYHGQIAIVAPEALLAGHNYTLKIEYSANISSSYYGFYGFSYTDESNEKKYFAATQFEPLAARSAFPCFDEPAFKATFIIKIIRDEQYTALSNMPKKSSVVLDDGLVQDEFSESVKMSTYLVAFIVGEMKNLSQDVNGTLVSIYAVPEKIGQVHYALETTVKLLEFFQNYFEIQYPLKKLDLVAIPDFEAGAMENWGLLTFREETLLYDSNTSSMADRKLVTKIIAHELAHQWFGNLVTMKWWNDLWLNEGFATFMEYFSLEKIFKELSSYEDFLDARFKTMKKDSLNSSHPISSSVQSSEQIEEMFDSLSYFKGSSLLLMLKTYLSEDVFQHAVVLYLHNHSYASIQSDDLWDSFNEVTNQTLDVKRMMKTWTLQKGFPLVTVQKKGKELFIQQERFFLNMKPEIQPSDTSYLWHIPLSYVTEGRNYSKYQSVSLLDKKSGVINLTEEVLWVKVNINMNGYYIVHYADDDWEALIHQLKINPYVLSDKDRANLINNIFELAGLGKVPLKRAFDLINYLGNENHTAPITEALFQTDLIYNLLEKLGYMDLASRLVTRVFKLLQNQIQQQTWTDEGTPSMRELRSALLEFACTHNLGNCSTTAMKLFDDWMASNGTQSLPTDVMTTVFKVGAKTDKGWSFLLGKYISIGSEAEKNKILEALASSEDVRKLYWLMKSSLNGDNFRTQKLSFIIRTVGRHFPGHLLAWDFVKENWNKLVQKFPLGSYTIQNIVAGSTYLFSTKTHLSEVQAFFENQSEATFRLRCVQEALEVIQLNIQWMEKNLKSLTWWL
For orientation: IC50 means the concentration needed to halve the response being measured. Molecule `COc1ccc(C[C@@H](C(=O)NO)n2cc(CNS(=O)(=O)c3ccc(-c4ccccn4)s3)nn2)cc1` [US20240101542, Compound 25] yielded an IC50 of 186 nM.

Molecule `CC(C)C[C@H](CP(=O)(O)[C@@H](N)CCc1ccccc1)C(N)=O` had an IC50 of 218 nM.

As for `COc1ccc(C[C@@H](C(=O)NO)n2cc(CNS(=O)(=O)c3ccc(-c4ccccc4)s3)nn2)cc1` [US20240101542, Compound 24], the IC50 came out at 383 nM.

As for `O=C(NO)[C@H](Cc1ccc(Oc2ccccc2)cc1)n1cc(CNS(=O)(=O)c2ccc(-c3ccccn3)s2)nn1` [US20240101542, Compound 23], the IC50 worked out at 560 nM.

Consider `C#C[C@H](CP(=O)(O)[C@@H](N)CCc1ccccc1)C(=O)N[C@@H](Cc1ccccc1)C(N)=O`, for which the IC50 is 2 nM.

As for `COc1ccc(C(=O)O)cc1S(=O)(=O)Nc1cc(C(F)(F)F)ccc1N1CCCCC1`, the IC50 is above 200000 nM.

With `COc1ccc(C(=O)O)cc1S(=O)(=O)N(C)c1cc(C(F)(F)F)ccc1N1CCCCC1`, the IC50 was found to be 160000 nM.

Take `COc1ccc(C(=O)O)cc1S(=O)(=O)N(C)c1cc(C(F)(F)F)ccc1N1CCN(C)CC1`: the IC50 is above 200000 nM.

Regarding `CC(C)C[C@@H](CP(=O)(O)[C@@H](N)CCc1ccccc1)C(N)=O`, half-maximal inhibition (IC50) was put at 344 nM.

In turn, `O=C(C[C@H](Cc1ccc(O)cc1)n1nncc1CNS(=O)(=O)c1ccc(-c2ccccn2)s1)NO` [US20240101542, Compound 33] gave an IC50 of 84 nM.

A further experiment has as its target Insulin-regulated aminopeptidase (Homo sapiens). The experiment in a line: Inhibition of human recombinant IRAP expressed in baculovirus infected Sf9 cells using L-AMC as substrate incubated for 5 to 10 mins by Michaelis-Menten analysis.
In the case of `NC1CCc2c(Br)ccc(Br)c2CC1=O` (stereo not drawn), the IC50 was found to be 34 nM.

`NC1CCc2c(Br)ccc(-c3ccccc3)c2CC1=O` (stereo not drawn): the IC50 turned out to be 120 nM.

The target in another experiment is Leucyl-cystinyl aminopeptidase (Homo sapiens) (UniProt Q9UIQ6). The experiment is described as follows: Inhibition of IRAP (unknown origin) using L-pNA as substrate.
`O=S(=O)(Nc1ccccc1)c1ccccc1` [phenyl(phenylsulfonyl)amine] came in with an IC50 of 2100 nM.
